# According to patent publication US5420276A, “Analogs of oxetanyl purines and pyrimidines” (Abbott Laboratories, priority 1993, dated 1995):
# Like-named read-outs stand apart in the source and are kept apart here.
# Legend:
# Format in all cases: cell-based
# [1] = MTT test compound cytotoxicity in human foreskin fibroblasts; settings: hff cells, read-out: MTT assay (Percent of control)
# Protocol: (§1) For the plaque reduction assay, sixth to twelfth passage human foreskin fibroblasts were seeded in wells of 12-well tissue culture plates and incubated at 37° C. in a humidified atmosphere containing 2% CO2 in air. Subconfluent HFF were rinsed with MEM and exposed to 0.5 ml/well of a suspension of VZV diluted in MEM+2% FBS for 2 hours at 37° C. Following the virus adsorption period, the inocula were removed and the infected cell layers were rinsed with MEM. Triplicate VZV-infected cell culture wells were treated with 1.0 ml of each concentration of test compound (in MEM+2% FBS). Six untreated virus-infected cell cultures and triplicate untreated uninfected cell cultures were fed with 1.0 ml of MEM+2% FBS to serve as controls. Wells containing uninfected HFF were treated with each concentration of test compound to monitor the test compound cytotoxicity. The 12-well plates were incubated at 37° C. in the CO2 incubator. At 48 hours post-virus infection (p.i.), fluids in all plate wells were replaced with fresh test compound and/or culture medium.
# The test compound cytotoxicity control cultures were examined microscopically for gross morphologic changes, then treated with MTT and 30% SDS. The blue color of the MTT formazan was measured spectrophotometrically at 570 nm. Test compound cytotoxicity was determined by comparing the absorbance (O.D.) of each test compound control with the mean O.D. of the cell control cultures and expressed as percent of control.
# [2] = MTT drug cytotoxicity assay in MRC5 cells; settings: human, read-out: MTT assay Percent of control
# Protocol: (§2) Human diploid embryonic lung (MRC5) cells were grown in 35 mm wells of 6-well tissue culture plates. Subconfluent cell monolayers were rinsed with phosphate-buffered saline (PBS) and were exposed to 0.5 ml/well of HCMV (strain AD169) suspension for 1.5 hours at 37° C. The virus suspension was diluted in MEM+2% fetal bovine serum (FBS) to yield a multipicity of infection (MOI) of approximately 0.1 plaque forming units (PFU)/cell. Following the virus adsorption period, the inocula were removed and infected cell layers were rinsed with PBS. Aliquiots (2.0 ml) of each test drug concentration (dissolved in MEM supplemented with 2% FBS) were dispensed into triplicate cell cultures: two virus-infected cultures and one uninfected cytotoxicity control culture (exposed to medium without virus for 1.5 hours). Untreated virus-infected control cultures and untreated, uninfected cell control cultures were fed with medium alone. The culture plates were incubated at 37° C. in a humidified atmosphere of 2% CO2 in air.
# All cell culture fluids were replaced with fresh drug and medium 48 hours postinfection (p.i.).
# Drug cytotoxicity was determined quantitatively by a method based on the reduction of the tetrazolium salt, 3-(4,5-dimethyl-thiazol-2-yl)-2,5-diphenyl tetrazolium bromide (MTT) by mitochondrial enzymes of viable host cells to MTT formazan (T. Mosmann, 1983). Drug cytotoxicity controls and cell controls were treated with MTT (dissolved in culture medium) followed by 20% SDS (in 0.02N HCl) to dissolve the crystals of MTT formazan. The blue color of the MTT formazan was measured spectrophotometrically at 570 nm. Drug cytotoxicity was determined by comparing the absorbance (O.D.) of each drug cytotoxicity control with the mean O.D. of the cell control cultures and expressed as percent of control.
# [3] = system: Human Cytomegalovirus (HCMV) strain AD169; assay: HCMV virus yield reduction assay; settings: Human betaherpesvirus 5, AD169, 144 h, MRC5 cells; for log reduction at 3.2 µg/mL: 3.2 μg/ml; for log reduction at 10 µg/mL: 10 μg/ml
# Protocol: as §2, with “air. All cell culture fluids were replaced with fresh drug and medium 48 hours postinfection (p.i.). On Day 6 p.i., the cell layers were examined microscopically for cytopathogenic effect (CPE) and drug cytotoxicity. The test and virus control cultures were then harvested by subjecting the cell layers to one cycle of freeze-thawing. The cellular material was scraped into the ambient medium and the contents from replicate cultures were pooled, dispensed into cryotubes and stored at -135° C. The harvested test and virus control samples were thawed and the infectious virus yield was determined by plaque assay in MRC5 cells grown in 12-well cluster plates. Inhibition of HCMV replication by each test compound was determined by comparing the progeny virus yields in the drug-treated cultures with the progeny virus yield in the untreated, virus-infected control cultures.” for “air.”
# [4] = system: Varicella-Zoster Virus (VZV) clinical isolate DM625; assay: VZV plaque reduction assay; settings: Human alphaherpesvirus 3, 144 h, VZV in HFF; for EC50: minimum concentration required to inhibit plaque formation by 50%, read-out: MIC50
# Protocol: The compounds of the invention were evaluated for selective activity against varicella zoster virus (VCV) utilizing a plaque reduction assay procedure. The challenge virus was a clinical isolate designated DM625, obtained from Dr. Richard Whitley of the University of Alabama Hospitals, Birmingham, Ala. The virus had been passaged and titrated in cultures of human foreskin fibroblasts (HFF).
# as §1
# Six days p.i., the VZV plaques were counted (unstained, low magnification).The effect of each concentration of test compound on plaque formation was determined by comparing the mean number of plaques in the replicate test compound-treated cultures with the mean plaque counts of the untreated virus control cultures.
# The MIC50 value is the minimum concentration of test Compound required to inhibit plaque formation by 50%.
smiles,measurement,setting,value
"O=c1ccn([C@@H]2O[C@H](CO)[C@H]2CO)c(=O)[nH]1 [Example 23, 1-([2'R,3'R,4'S]-3',4'-Bis(hydroxymethyl)-2'-oxetanyl)uracil]",viability at 3.2 µM,[1],82%
same,viability at 10 µM,[1]; 10 μM,84%
same,viability at 32 µM,[1]; 32 μM,87%
same,viability at 100 µM,[1]; 100 μM,88%
same,viability at 320 µM,[1]; 320 μM,82%
same,viability,[2]; 10 μg/ml,100%
same,viability,[2]; 32 μg/ml,100%
same,viability,[2]; 100 μg/ml,98%
same,viability,[2]; 320 μg/ml,100%
same,log reduction at 3.2 µg/mL,[3],0.2
same,log reduction at 10 µg/mL,[3],0.4
same,log reduction at 32 µg/mL,[3]; 32 μg/ml,0.5
same,log reduction at 100 µg/mL,[3]; 100 μg/ml,0.9
same,log reduction at 320 µg/mL,[3]; 320 μg/ml,1.9
same,inhibition at 1 µM,[4],22%
same,inhibition at 3.2 µM,[4],22%
same,inhibition at 10 µM,[4]; 10 μM,34%
same,inhibition at 32 µM,[4]; 32 μM,84%
same,inhibition at 100 µM,[4]; 100 μM,100%
same,inhibition at 320 µM,[4]; 320 μM,100%
same,EC50,[4],19.4 µg/mL
"O=c1[nH]c(=O)n([C@@H]2O[C@H](CO)[C@H]2CO)cc1C=CBr [Example 44, 1-([2'R, 3'R, 4'S]-3',4'-Bis(hydroxymethyl)-2'-oxetanyl)-5-(2-bromo-1-vinyl)uracil]",viability at 0.0001 µM,[1]; 0.0001 μM,99%
same,viability at 0.00032 µM,[1]; 0.00032 μM,98%
same,viability at 0.001 µM,[1]; 0.001 μM,93%
same,viability at 0.0032 µM,[1]; 0.0032 μM,100%
same,viability at 0.01 µM,[1]; 0.01 μM,97%
same,viability at 0.032 µM,[1]; 0.032 μM,94%
same,viability at 0.1 µM,[1],92%
same,viability at 0.32 µM,[1],92%
same,viability at 1 µM,[1],100%
same,viability at 3.2 µM,[1],100%
same,inhibition at 0.0001 µM,[4]; 0.0001 μM,3%
same,inhibition at 0.00032 µM,[4]; 0.00032 μM,6%
same,inhibition at 0.001 µM,[4]; 0.001 μM,4%
same,inhibition at 0.0032 µM,[4]; 0.0032 μM,16%
same,inhibition at 0.01 µM,[4]; 0.01 μM,54%
same,inhibition at 0.032 µM,[4],97%
same,inhibition at 0.1 µM,[4],98%
same,inhibition at 0.32 µM,[4],99%
same,inhibition at 1 µM,[4],99%
same,inhibition at 3.2 µM,[4],100%
same,EC50,[4],0.0032 µg/mL
"Nc1ccn([C@@H]2O[C@H](CO)[C@H]2CO)c(=O)n1 [Example 22, 1-([2'R,3'R,4'S]-3',4'-Bis(hydroxymethyl)-2'-oxetanyl)cytosine]",viability at 0.1 µM,[1],88%
same,viability at 0.32 µM,[1],81%
same,viability at 1 µM,[1],77%
same,viability at 3.2 µM,[1],76%
same,viability,[2]; 0.32 μg/ml,84%
same,viability,[2]; 1.0 μg/ml,81%
same,viability,[2]; 3.2 μg/ml,77%
same,viability,[2]; 10 μg/ml,78%
same,log reduction at 0.032 µg/mL,[3]; 0.032 μg/ml,0.8
same,log reduction at 0.1 µg/mL,[3]; 0.1 μg/ml,1.4
same,log reduction at 0.32 µg/mL,[3]; 0.32 μg/ml,1.9
same,log reduction at 1 µg/mL,[3]; 1.0 μg/ml,4.1
same,log reduction at 3.2 µg/mL,[3],> 4.4
same,log reduction at 10 µg/mL,[3],> 4.4
same,inhibition at 0.032 µM,[4],29%
same,inhibition at 0.1 µM,[4],86%
same,inhibition at 0.32 µM,[4],100%
same,inhibition at 1 µM,[4],100%
same,inhibition at 3.2 µM,[4],100%
same,EC50,[4],0.07 µg/mL
